Earlier results, collected in PubChem BioAssay AID1259409 (Chemical Carcinogenesis Research Information System (CCRIS), 2018).

Test system: rodent chemically induced tumor inhibition, incidence and multiplicity
Assay: CCRIS tumor inhibitor studies
Conditions: Promoter: NONE USED

In the case of `CCCCCCC(=O)O[C@H]1CC[C@H]2[C@@H]3CCC4=CC(=O)CC[C@]4(C)[C@H]3CC[C@]12C`, the “tumour outcome (control, treated, inhibition, significance)” value (Carcinogen: 7,12-DIMETHYLBENZ[A]ANTHRACENE, 57-97-6, Dose [Inhibitor]: 0, 6 MG/100 G BW 1/WK FOR 150 D BEGINNING POST CARCINOGEN TREATMENT (STUDY DURATION: 150 D), Route [Inhibitor]: SUBCUTANEOUS, Species: RAT, Strain/Sex: WISTAR/FEMALE, Target Tissue: Type of Lesion: MAMMARY GLAND: ADENOCARCINOMA, Dose [Carcinogen]: 4 MG IN 0.1 ML OF SESAME OIL INJECTED ONCE INTO THE EXPOSED MAMMARY TISSUE OF HYPERPROLACTINEMIC RATS ON DAY 73 OF AGE) is given as 8/11 (73%), 2/8 (25%), 66%, p<0.05.

For `CC(=O)O`, the “tumour outcome (control, treated, inhibition, significance)” value (Dose [Inhibitor]: 0, 60 UMOL (MG) INJECTED WITH CARCINOGEN INTO THIGH OF BOTH HIND LIMBS (STUDY DURATION: 79 WK), Route [Inhibitor]: INTRAMUSCULAR, Species: RAT, Strain/Sex: F344/MALE, Target Tissue: Type of Lesion: INJECTION SITE: SARCOMA, Dose [Carcinogen]: 2.5 MG PER SITE INJECTED INTO THIGH OF BOTH HIND LIMBS) is listed as 100%, 95%, 5%, not significant.

For `CC1(C)O[C@@H]2C[C@H]3[C@@H]4CCC5=CC(=O)C=C[C@]5(C)[C@@]4(F)[C@@H](O)C[C@]3(C)[C@]2(C(=O)CO)O1`, the “tumour outcome (control, treated, inhibition, significance)” value (Carcinogen: UVB IRRADIATION, Dose [Inhibitor]: 14.4 NMOL IN 0.1 ML ACETONE 5/WK FOR 4 WK IMMEDIATELY AFTER EACH UVB EXPOSURE FOLLOWED BY 48 WK OBSERVATION PERIOD (STUD, Route [Inhibitor]: DERMAL, Species: MOUSE, Strain/Sex: SKH/HRL/FEMALE, Target Tissue: Type of Lesion: SKIN: TUMOR, Dose [Carcinogen]: 0.3 KJ/SQM ON FIRST DAY, 0.6 KJ/SQM ON SECOND DAY AND ALL SUBSEQUENT DAYS 0.9 KJ/SQM ADMINISTERED 5 D/WK FOR 4 WK) is given as 8/27 (30%), 4/27 (15%), 50%, not significant.

For `CC1=C(/C=C/C(C)=C/C=C/C(C)=C/C(=O)NCC(C)O)C(C)(C)CCC1` (stereo unspecified), the “tumour outcome (control, treated, inhibition, significance)” value (Carcinogen: N-BUTYL-N-(4-HYDROXYBUTYL)NITROSAMINE, 3817-11-6, Dose [Inhibitor]: 1.5 MMOL/KG DIET DAILY FOR 108 D STARTING ONE WK AFTER THE FINAL CARCINOGEN DOSE (STUDY DURATION: 171 D), Route [Inhibitor]: ORAL, Species: MOUSE, Strain/Sex: BDF/MALE, Target Tissue: Type of Lesion: URINARY BLADDER: TRANSITIONAL CELL CARCINOMA, Dose [Carcinogen]: 5 MG, 2/WK FOR 9 WK) is listed as 31/55 (56%), 20/55 (36%), 36%, p<0.05, the “tumour outcome (control, treated, inhibition, significance)” value (Carcinogen: N-BUTYL-N-(4-HYDROXYBUTYL)NITROSAMINE, 3817-11-6, Dose [Inhibitor]: 1.5 MMOL/KG/D IN DIET FOR 108 D STARTING 1 WK POST CARCINOGEN TREATMENT (STUDY DURATION: 171 D), Route [Inhibitor]: ORAL, Species: MOUSE, Strain/Sex: BDF/MALE, Target Tissue: Type of Lesion: URINARY BLADDER: TRANSITIONAL CELL CARCINOMA, Dose [Carcinogen]: 5 MG 2/WK FOR 9 WK) is listed as 31/55 (56%), 20/55 (36%), 36%, p<0.05 and the “tumour outcome (control, treated, inhibition, significance)” value (Carcinogen: N-NITROSOBIS(2-OXOPROPYL)AMINE, 60599-38-4, Dose [Inhibitor]: 0.25 MMOL/KG OF DIET FOR 364 D STARTING 2 WK AFTER LAST CARCINOGEN DOSE (STUDY DURATION: 55 WK), Route [Inhibitor]: ORAL, Species: HAMSTER, Strain/Sex: SYRIAN/FEMALE, Target Tissue: Type of Lesion: LIVER: CARCINOMA, Dose [Carcinogen]: 20 MG/KG INJECTION GIVEN TWICE 1 WK APART) is listed as 5%, 19%, -280%, not calculated. For the same compound, the “tumour outcome (control, treated, inhibition, significance)” value (Carcinogen: N-NITROSOBIS(2-OXOPROPYL)AMINE, 60599-38-4, Dose [Inhibitor]: 0.25 MMOL/KG OF DIET FOR 364 D STARTING 2 WK AFTER LAST CARCINOGEN DOSE (STUDY DURATION: 55 WK), Route [Inhibitor]: ORAL, Species: HAMSTER, Strain/Sex: SYRIAN/FEMALE, Target Tissue: Type of Lesion: PANCREAS: CARCINOMA, Dose [Carcinogen]: 20 MG/KG INJECTION GIVEN TWICE 1 WK APART) was 38%, 15%, 61%, not calculated, the “tumour outcome (control, treated, inhibition, significance)” value (Carcinogen: N-NITROSOBIS(2-OXOPROPYL)AMINE, 60599-38-4, Dose [Inhibitor]: 0.25 MMOL/KG OF DIET FOR 364 D STARTING 2 WK AFTER LAST CARCINOGEN DOSE (STUDY DURATION: 55 WK), Route [Inhibitor]: ORAL, Species: HAMSTER, Strain/Sex: SYRIAN/MALE, Target Tissue: Type of Lesion: LIVER: CARCINOMA, Dose [Carcinogen]: 20 MG/KG INJECTION GIVEN TWICE 1 WK APART) was 7%, 32%, -357%, not calculated and the “tumour outcome (control, treated, inhibition, significance)” value (Carcinogen: N-NITROSOBIS(2-OXOPROPYL)AMINE, 60599-38-4, Dose [Inhibitor]: 0.25 MMOL/KG OF DIET FOR 364 D STARTING 2 WK AFTER LAST CARCINOGEN DOSE (STUDY DURATION: 55 WK), Route [Inhibitor]: ORAL, Species: HAMSTER, Strain/Sex: SYRIAN/MALE, Target Tissue: Type of Lesion: PANCREAS: CARCINOMA, Dose [Carcinogen]: 20 MG/KG INJECTION GIVEN TWICE 1 WK APART) was 34%, 24%, 29%, not calculated. For the same compound, the “tumour outcome (control, treated, inhibition, significance)” value (Carcinogen: N-NITROSOBIS(2-OXOPROPYL)AMINE, 60599-38-4, Dose [Inhibitor]: 0.5 MMOL/KG DIET FOR 357 D STARTING 2 WK AFTER LAST CARCINOGEN DOSE AND INTERRUPTED BY A 1 WK REST PERIOD OF VEHICLE ONL, Route [Inhibitor]: ORAL, Species: HAMSTER, Strain/Sex: SYRIAN/FEMALE, Target Tissue: Type of Lesion: LIVER: HEPATOCELLULAR CARCINOMA, Dose [Carcinogen]: 20 MG/KG INJECTION GIVEN TWICE 1 WK APART) was 5%, 12%, -140%, not calculated, the “tumour outcome (control, treated, inhibition, significance)” value (Carcinogen: N-NITROSOBIS(2-OXOPROPYL)AMINE, 60599-38-4, Dose [Inhibitor]: 0.5 MMOL/KG DIET FOR 357 D STARTING 2 WK AFTER LAST CARCINOGEN DOSE AND INTERRUPTED BY A 1 WK REST PERIOD OF VEHICLE ONL, Route [Inhibitor]: ORAL, Species: HAMSTER, Strain/Sex: SYRIAN/FEMALE, Target Tissue: Type of Lesion: PANCREAS: CARCINOMA, Dose [Carcinogen]: 20 MG/KG INJECTION GIVEN TWICE 1 WK APART) was 38%, 25%, 34%, not calculated and the “tumour outcome (control, treated, inhibition, significance)” value (Carcinogen: N-NITROSOBIS(2-OXOPROPYL)AMINE, 60599-38-4, Dose [Inhibitor]: 0.5 MMOL/KG DIET FOR 357 D STARTING 2 WK AFTER LAST CARCINOGEN DOSE AND INTERRUPTED BY A 1 WK REST PERIOD OF VEHICLE ONL, Route [Inhibitor]: ORAL, Species: HAMSTER, Strain/Sex: SYRIAN/MALE, Target Tissue: Type of Lesion: LIVER: HEPATOCELLULAR CARCINOMA, Dose [Carcinogen]: 20 MG/KG INJECTION GIVEN TWICE 1 WK APART) was 7%, 12%, -71%, not calculated. For the same compound, the “tumour outcome (control, treated, inhibition, significance)” value (Carcinogen: N-NITROSOBIS(2-OXOPROPYL)AMINE, 60599-38-4, Dose [Inhibitor]: 0.5 MMOL/KG DIET FOR 357 D STARTING 2 WK AFTER LAST CARCINOGEN DOSE AND INTERRUPTED BY A 1 WK REST PERIOD OF VEHICLE ONL, Route [Inhibitor]: ORAL, Species: HAMSTER, Strain/Sex: SYRIAN/MALE, Target Tissue: Type of Lesion: PANCREAS: CARCINOMA, Dose [Carcinogen]: 20 MG/KG INJECTION GIVEN TWICE 1 WK APART) was 34%, 29%, 15%, not calculated.

For `CCC1(c2ccc(N)cc2)CCC(=O)NC1=O` (stereo unspecified), the “tumour outcome (control, treated, inhibition, significance)” value (Carcinogen: N-METHYL-N-NITROSOUREA, 684-93-5, Dose [Inhibitor]: 0, 400 MG/KG IN DIET FOR THE DURATION OF STUDY BEGINNING 7 D PRIOR TO CARCINOGEN DOSE (STUDY DURATION: 187 D), Route [Inhibitor]: ORAL, Species: RAT, Strain/Sex: SPRAGUE-DAWLEY/FEMALE, Target Tissue: Type of Lesion: MAMMARY GLAND: TUMOR, Dose [Carcinogen]: 50 MG/KG BW ONCE) is listed as 100%, 100%, 0%, not significant.

In the case of `CCOC(=O)C(C)(C)Br`, the “tumour outcome (control, treated, inhibition, significance)” value (Carcinogen: N-METHYL-N'-NITRO-N-NITROSOGUANIDINE, 70-25-7, Dose [Inhibitor]: 0, 42 MG/KG TWICE WITHIN 24 HR THEN 105 MG/KG 1/2 WK FOR DURATION OF STUDY BEGINNING 1 WK POST LAST CARCINOGEN DOSE (STU, Route [Inhibitor]: INTRAPERITONEAL, Species: RAT, Strain/Sex: SHR/MALE, Target Tissue: Type of Lesion: STOMACH: ADENOCARCINOMA, Dose [Carcinogen]: 25 UG/ML IN DRINKING WATER FOR 25 WK) is listed as 10/19 (53%), 2/17 (12%), 77%, p<0.05 and the “tumour outcome (control, treated, inhibition, significance)” value (Carcinogen: N-METHYL-N'-NITRO-N-NITROSOGUANIDINE, 70-25-7, Dose [Inhibitor]: 0, 42 MG/KG TWICE WITHIN 24 HR THEN 105 MG/KG 1/2 WK FOR DURATION OF STUDY BEGINNING 1 WK POST LAST CARCINOGEN DOSE (STU, Route [Inhibitor]: INTRAPERITONEAL, Species: RAT, Strain/Sex: WISTAR/MALE, Target Tissue: Type of Lesion: STOMACH: ADENOCARCINOMA, Dose [Carcinogen]: 25 UG/ML IN DRINKING WATER FOR 25 WK) is listed as 2/18 (11%), 0/17 (0%), 100%, not significant.
